The values below come from PubChem BioAssay (NCI).

Among the test systems are COLO 205 colon; M14 melanoma; MOLT-4 leukemia; OVCAR-5 ovarian; RXF 393 renal; SK-OV-3 ovarian; SNB-19 CNS; SW-620 colon; T-47D breast; UACC-62 melanoma.
What all share (assay): inhibition of tumour cell growth, NCI panel, 48 h

“And” between values parts separate entries of the source, which are not always exact repeats. Identical values can stand only once.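 Method: 48-hour compound exposure of cells in 96-well plates, five concentrations, linear interpolation of endpoints. GI50 = concentration required for 50% inhibition of growth. At the TGI there is no net growth.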

For the compound `CS(=O)(=O)c1cc(=O)c2ccccc2s1`, the TGI with COLO 205 colon stood at 3.26 µM; with M14 melanoma it was 3.44 µM; in the assay with MOLT-4 leukemia it was 3.92 µM; in the assay on OVCAR-5 ovarian it was 22.3 µM; with RXF 393 renal, 9.05 µM; with SK-OV-3 ovarian, 32.3 µM. In addition, the TGI worked out at 36.5 µM with SNB-19 CNS, 3.4 µM in the assay with SW-620 colon, 9.41 µM in the assay with T-47D breast and 27.3 µM in the assay with UACC-62 melanoma.
As to `O=C(/C(=C/c1cccc([N+](=O)[O-])c1)c1ccccc1)c1ccccc1`, the GI50 in the assay with COLO 205 colon was 3.82 µM; in the assay with M14 melanoma, 3.45 µM; in the assay with MOLT-4 leukemia, 3.13 µM; in the assay on OVCAR-5 ovarian, 5.56 µM; with RXF 393 renal, 3.39 µM; in the assay on SK-OV-3 ovarian, 3.69 µM. Also, the GI50 in the assay with SNB-19 CNS was 5.15 µM; in the assay with SW-620 colon, 3.1 µM; with T-47D breast it was 3.42 µM; in the assay on UACC-62 melanoma, 2.8 µM. Moreover, the TGI was 13.3 µM in the assay with COLO 205 colon; 18.9 µM in the assay on M14 melanoma; 11.6 µM in the assay with MOLT-4 leukemia; 25.8 µM with OVCAR-5 ovarian; 9.06 µM with RXF 393 renal; 10.2 µM in the assay with SK-OV-3 ovarian. Also, the TGI in the assay on SNB-19 CNS is 19.7 µM; in the assay with SW-620 colon, 9.19 µM; in the assay with T-47D breast it was 15.5 µM; with UACC-62 melanoma, 12.1 µM.
On to `C=C1CC[C@@H]2[C@](C)(COC(C)=O)[C@H](OC(C)=O)CC[C@@]2(C)[C@@H]1CC(Nc1ccc(S(=O)(=O)Nc2ncccn2)cc1)C1=CCOC1=O` (some centres undefined), for which the GI50 in the assay on COLO 205 colon was 1.78 µM; with M14 melanoma it was 1.44 µM; in the assay on MOLT-4 leukemia it was 2.27 µM; with OVCAR-5 ovarian, 1.98 µM; in the assay on RXF 393 renal, 1.95 µM; in the assay with SK-OV-3 ovarian, 6.27 µM. For the same compound, the GI50 in the assay with SNB-19 CNS was 1.63 µM; in the assay with SW-620 colon, 0.864 µM; in the assay with T-47D breast, 2 µM; with UACC-62 melanoma, 1.11 µM. Further, the TGI in the assay with COLO 205 colon stood at 3.8 µM; in the assay on M14 melanoma, 3.98 µM; in the assay on MOLT-4 leukemia, 8.37 µM; in the assay with OVCAR-5 ovarian, 3.85 µM; in the assay on RXF 393 renal it was 3.58 µM; in the assay on SK-OV-3 ovarian, 18.3 µM. Also, the TGI with SNB-19 CNS is 3.76 µM; in the assay with SW-620 colon, 2.25 µM; in the assay on T-47D breast, 5.46 µM; with UACC-62 melanoma it was 2.56 µM.
Take `Cn1cnc([N+](=O)[O-])c1[Se]c1nc(N)nc2c1ncn2C1OC(CO)C(O)C1O` (centres undefined): the TGI in the assay on COLO 205 colon, with M14 melanoma, with MOLT-4 leukemia, with OVCAR-5 ovarian, in the assay with RXF 393 renal and with SK-OV-3 ovarian was above 100 µM throughout. Further, the TGI in the assay with SNB-19 CNS, in the assay with SW-620 colon, in the assay with T-47D breast and in the assay with UACC-62 melanoma was above 100 µM each time.
Consider `CC(C)CCCC(=O)CCCCCCC(=O)CCN(O)C(=O)C(N)CO` (centres undefined), for which the TGI with COLO 205 colon is 53.5 µM; with M14 melanoma, 61.5 µM; in the assay on MOLT-4 leukemia, above 100 µM; with OVCAR-5 ovarian it was 50.6 µM; in the assay with RXF 393 renal, 27.4 µM; in the assay with SK-OV-3 ovarian, 35.6 µM. For the same compound, the TGI in the assay with SNB-19 CNS is 48.6 µM; in the assay with SW-620 colon, above 100 µM; with T-47D breast, 34.8 µM; in the assay on UACC-62 melanoma, 34.6 µM.
Take `C=C[C@H]1C[C@@H]2C[C@@H]3[C@H]4C/C=C\C(=O)NCCCC5NC(=O)C(=C(O)/C=C/[C@@H]4CC(=O)[C@H]3[C@@H]2[C@H]1C)C5=O` (some centres undefined): the GI50 with COLO 205 colon was 1.78 µM; in the assay with M14 melanoma it was 0.253 µM; with OVCAR-5 ovarian it was 0.436 µM; with RXF 393 renal, 0.165 µM; in the assay with SK-OV-3 ovarian, 0.242 µM; with SNB-19 CNS, 0.286 µM. Also, the GI50 in the assay with SW-620 colon was 1.66 µM; in the assay with T-47D breast, 1.65 µM; with UACC-62 melanoma, 1.45 µM. Also, the TGI came out at 3.21 µM in the assay with COLO 205 colon; 0.822 µM with M14 melanoma; 1.72 µM with OVCAR-5 ovarian; 0.308 µM in the assay on RXF 393 renal; 0.606 µM in the assay with SK-OV-3 ovarian; 1 µM in the assay with SNB-19 CNS. For the same compound, the results for the TGI in the assay on SW-620 colon, in the assay on T-47D breast and in the assay on UACC-62 melanoma were 3.13 µM, 3.52 µM and 2.88 µM, respectively.
On to `COc1cc2c3c(n(CCCCOC(=O)C(Cl)(Cl)Cl)c(=O)c2cc1OC)-c1cc2c(cc1C3=O)OCO2`, for which the GI50 in the assay with COLO 205 colon was above 100 µM; in the assay with M14 melanoma, 24.3 µM; in the assay with MOLT-4 leukemia, 5.67 µM; with OVCAR-5 ovarian it was above 100 µM; with SK-OV-3 ovarian, above 100 µM; with SNB-19 CNS, above 100 µM. Further, the GI50 was 85.5 µM with SW-620 colon, above 100 µM with T-47D breast and 22.5 µM with UACC-62 melanoma. Also, the TGI in the assay on COLO 205 colon is above 100 µM; with M14 melanoma, 71.9 µM; in the assay on MOLT-4 leukemia it was above 100 µM; with OVCAR-5 ovarian, above 100 µM; in the assay on SK-OV-3 ovarian it was above 100 µM; with SNB-19 CNS, above 100 µM. The TGI with SW-620 colon, in the assay on T-47D breast and in the assay with UACC-62 melanoma was above 100 µM in each case.
Regarding `NCCCn1c2c(c3ccc([N+](=O)[O-])cc3c1=O)C(=O)c1cc(Br)ccc1-2`, the GI50 in the assay on COLO 205 colon was 0.0946 µM and 0.79 µM; with M14 melanoma, 0.185 µM; in the assay with OVCAR-5 ovarian, 0.197 µM and 0.14 µM; in the assay with RXF 393 renal, 0.318 µM; in the assay on SK-OV-3 ovarian, 0.348 µM; in the assay with SNB-19 CNS it was 0.0379 µM. Moreover, the GI50 with SW-620 colon is 0.00106 µM; in the assay on T-47D breast it was 0.346 µM and 0.169 µM; with UACC-62 melanoma it was 0.0195 µM. The TGI is 2.34 µM in the assay with COLO 205 colon; 0.435 µM and 0.165 µM in the assay with M14 melanoma; 0.409 µM and 0.688 µM in the assay with OVCAR-5 ovarian; 2.03 µM with SK-OV-3 ovarian; 0.132 µM in the assay with SW-620 colon; 1.49 µM in the assay with T-47D breast. Further, the TGI with UACC-62 melanoma is 0.0488 µM and 0.0256 µM.
On to `COc1ccc2nc3cc(Cl)ccc3c(NCCN)c2c1`, for which the GI50 was 1.53 µM in the assay with COLO 205 colon; 1.82 µM with M14 melanoma; 1.25 µM in the assay on MOLT-4 leukemia; 1.81 µM in the assay on SK-OV-3 ovarian; 1.45 µM in the assay with SW-620 colon; 1.83 µM in the assay on T-47D breast. The TGI came to 3.14 µM in the assay on COLO 205 colon; 3.44 µM in the assay with M14 melanoma; 3.68 µM with MOLT-4 leukemia; 3.26 µM in the assay on SK-OV-3 ovarian; 3.25 µM in the assay on SW-620 colon; 3.59 µM in the assay on T-47D breast.
